In US9162219B2, “Fenton reaction catalyst produced using reducing organic substance as raw material” (INCORPORATED ADMINISTRATIVE AGENCY, NATIONAL AGRICULTURE …, priority 2011, dated 2015):

Assays:
[1] = Ability to catalyze Fenton reaction, luminol reaction observed by eye; settings: reaction product solution added to 100 ml luminol solution (1 g/L luminol, 4 g/L sodium hydroxide, 0.3% hydrogen peroxide)
Source text: With respect to the reaction products of the samples, which were confirmed to have iron reducing effects in Example 1, and iron, the fact that the reaction products have abilities to catalyze the Fenton reaction was examined by a luminol reaction.
It should be noted that the luminol reaction means a luminescence reaction caused by oxidizing luminol by generation of hydroxyl radicals.
Small amounts of the aqueous solutions containing the reaction products prepared in Example 1 were each added to 100 ml of a luminol solution (1 g/L luminol, 4 g/L sodium hydroxide, 0.3% hydrogen peroxide), and the presence or absence of luminescence was observed.

[2] = Luminol reaction, amount of luminescence (hydroxyl radicals generated) measured with AB-2270 Luminescencer Octa
Description: In the step of preparing the reaction products of the samples and iron, the ability to catalyze the Fenton reaction was examined with different mixing ratios of the samples to iron.
The above-mentioned samples were each mixed with iron (III) chloride (1 mM FeCl3) at different mixing ratios as shown in FIG. 2 to prepare reaction products in the same manner as in Example 1.
(§1) Then, for each of the aqueous solutions containing the reaction products, the amount of luminescence (amount of hydroxyl radicals generated) provided by the luminol reaction was measured using the AB-2270 Luminescencer Octa to determine the ability of the reaction products to catalyze the Fenton reaction. […]
The above-mentioned samples were added to different concentrations of iron (III) chloride (0.02, 0.1, 0.2, 1, 5, and 10 mM) at the optimum mixing ratios determined in Example 3 (ascorbic acid: 0.5 mM, squeezed grape juice: 40 mg/L in terms of total polyphenols, chaff vinegar stock solution: 50 g/L, with respect to 1 mM FeCl3) to prepare reaction products in the same manner as in Example 1.
as §1

Escherichia coli = settings: 10 mM hydrogen peroxide, 1.0x10^6 cfu/mL, 10 minutes of treatment, TTC medium plate

Row | Structure (SMILES) | presence or absence of luminescence [1] | ability to catalyze the Fenton reaction ([2]; reaction products with iron at optimum mixing ratios and concentrations (Example 5)) | optimum mixing concentration for ability to catalyze the Fenton reaction ([2]; with respect to 1 mM FeCl3) | sterilization effect (survival of Escherichia coli) (Escherichia coli)
1 | O=C1O[C@H]([C@@H](O)CO)C(O)=C1O [Sample 1, ascorbic acid] | blue fluorescence was observed | very high | about 0.5 mM | 
2 | OO [hydrogen peroxide] |  |  |  | a large amount of Escherichia coli survived
